The values below come from patent publication US20240109918A1, “HETEROCYCLIC COMPOUNDS AND USES THEREOF” (Kumquat Biosciences Inc., priority 2022, published 2024).

The target of one assay is T1, KRASwt (Homo sapiens, UniProt P01116).
T1 construct: made in house; host or cells: E. coli BL21 (DE3)
Put plainly: Bio-Biochem-PPI-HTRF Ras-SOS1 interaction assay (KRAS wt). It is filed as biochemical. The note with it: 5 nM. In outline:
(§1)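 HTRF measurement of GST-K-Ras (wt or G12D) binding to His-hSOS1, via anti-GST-Eu(K) donor and anti-6His-XL665 acceptor, in HEPES pH 7.4 buffer with NaCl, DTT, BSA and Igepal. Read after ≥10 min; compounds in duplicate from 10 μM down to 0.01 μM. IC50 from 665/620 nm ratio.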

The target of another assay is T2, KRASG12D (Homo sapiens, UniProt P01116, G12D).
T2 construct: made in house; host or cells: E. coli BL21 (DE3)
T2 sequence (P01116 1-188 isoform P01116-2 G12D): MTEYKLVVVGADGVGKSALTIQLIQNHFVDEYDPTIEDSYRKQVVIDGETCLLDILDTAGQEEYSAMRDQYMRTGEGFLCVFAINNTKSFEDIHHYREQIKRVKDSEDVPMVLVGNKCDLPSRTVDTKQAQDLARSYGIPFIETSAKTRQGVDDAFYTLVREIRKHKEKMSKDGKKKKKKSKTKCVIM
Kind of assay: Bio-Biochem-PPI-HTRF Ras-SOS1 interaction assay (KRAS G12D). It is filed as biochemical. The note with it: 5 nM. The gist of the method: as §1

T1 sequence (P01116 1-188 isoform P01116-2): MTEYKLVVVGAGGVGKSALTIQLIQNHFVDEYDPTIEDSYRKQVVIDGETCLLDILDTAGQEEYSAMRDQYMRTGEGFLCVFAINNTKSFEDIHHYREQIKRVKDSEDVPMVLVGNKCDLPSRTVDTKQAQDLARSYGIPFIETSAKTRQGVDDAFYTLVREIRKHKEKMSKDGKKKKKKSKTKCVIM

As for `C#Cc1c(F)ccc2cc(O)cc(-c3ncc4c(N5CCCC6(CNC6)C5)nc(O[C@@H](C)[C@@H]5CCCN5C)nc4c3F)c12` [compound 152, 5-ethynyl-6-fluoro-4-(8-fluoro-2-((S)-1-((S)-1-methylpyrrolidin-2-yl)ethoxy)-4-(2,6-diazaspiro[3.5]nonan-6-yl)pyrido[4,3-d]pyrimidin-7-yl)naphthalen-2-ol], the half-maximal inhibitory concentration (IC50) against KRASwt is < 5 µM; at KRASG12D, ≥ 5 µM.

As to `CCN(C(=O)N1CC2(C1)CN(c1nc(OC[C@@]34CCCN3C[C@H](F)C4)nc3c(F)c(-c4ccc(F)c5sc(N)c(C#N)c45)c(Cl)cc13)CC(F)(F)O2)C(C)C` [compound 153, 8-(7-(2-amino-3-cyano-7-fluorobenzo[b]thiophen-4-yl)-6-chloro-8-fluoro-2-(((2R,7aS)-2-fluorotetrahydro-1H-pyrrolizin-7a(5H)-yl)methoxy)quinazolin-4-yl)-N-ethyl-6,6-difluoro-N-isopropyl-5-oxa-2,8-diazaspiro[3.5]nonane-2-carboxamide], the IC50 against KRASwt and against KRASG12D was < 5 µM each time.

As to `N#Cc1c(N)sc2c(F)ccc(-c3c(Cl)cc4c(N5CCCCC6(CN(C(=O)C7CC7(F)F)C6)C5)nc(OC[C@@]56CCCN5C[C@H](F)C6)nc4c3F)c12` (stereo partly drawn) [compound 154, 2-amino-4-(6-chloro-4-(2-(2,2-difluorocyclopropane-1-carbonyl)-2,6-diazaspiro[3.6]decan-6-yl)-8-fluoro-2-(((2R,7aS)-2-fluorotetrahydro-1H-pyrrolizin-7a(5H)-yl)methoxy)quinazolin-7-yl)-7-fluorobenzo[b]thiophene-3-carbonitrile], the concentration for half-maximal inhibition (IC50) at KRASwt and against KRASG12D was < 5 µM throughout.

With `NC(=O)N1CC2(CCN(c3nc(OC[C@@]45CCCN4C[C@H](F)C5)nc4c(F)c(-c5ccc(F)c6sc(N)nc56)c(Cl)cc34)CC2)C1` [compound 157, 7-(7-(2-amino-7-fluorobenzo [d]thiazol-4-yl)-6-chloro-8-fluoro-2-(((2R,7aS)-2-fluorotetrahydro-1H-pyrrolizin-7a(5H)-yl)methoxy)quinazolin-4-yl)-2,7-diazaspiro[3.5]nonane-2-carboxamide], the IC50 against KRASwt and against KRASG12D was < 5 µM throughout.

In the case of `C#Cc1c(F)ccc2cc(O)cc(-c3ccc4c(N5CCOC6(CNC6)C5)nc(OC[C@@]56CCCN5C[C@H](F)C6)nc4c3F)c12` [compound 158, 5-ethynyl-6-fluoro-4-(8-fluoro-2-(((2R,7aS)-2-fluorotetrahydro-1H-pyrrolizin-7a(5H)-yl)methoxy)-4-(5-oxa-2,8-diazaspiro[3.5]nonan-8-yl)quinazolin-7-yl)naphthalen-2-ol], the IC50 against KRASwt and against KRASG12D was < 5 µM throughout.

Consider `Nc1nc2c(-c3c(Cl)cc4c(N5CCCC6(CNCCO6)C5)nc(OC[C@@]56CCCN5C[C@H](F)C6)nc4c3F)ccc(F)c2s1` (stereo partly drawn) [compound 159, 4-(6-chloro-8-fluoro-2-(((2R,7aS)-2-fluorotetrahydro-1H-pyrrolizin-7a(5H)-yl)methoxy)-4-(1-oxa-4,8-diazaspiro[5.5]undecan-8-yl)quinazolin-7-yl)-7-fluorobenzo[d]thiazol-2-amine], for which the IC50 at KRASwt and on KRASG12D was < 5 µM each time.

As to `N#Cc1c(N)sc2c(F)ccc(-c3c(Cl)cc4c(N5CCCCC6(CN(C(=O)C7CCC7F)C6)C5)nc(OC[C@@]56CCCN5C[C@H](F)C6)nc4c3F)c12` (stereo partly drawn) [compound 160, 2-amino-4-(6-chloro-8-fluoro-4-(2-(2-fluorocyclobutane-1-carbonyl)-2,6-diazaspiro[3.6]decan-6-yl)-2-(((2R,7aS)-2-fluorotetrahydro-1H-pyrrolizin-7a(5H)-yl)methoxy)quinazolin-7-yl)-7-fluorobenzo[b]thiophene-3-carbonitrile], the IC50 on KRASwt and against KRASG12D was < 5 µM in each case.
